The source of these data is patent US12077503B2, “Substituted cyclic amides and their use as herbicides” (FMC CORPORATION, priority 2015, dated 2024).

What all share (assay): Test A postemergence
Holding throughout (assay type): in vivo

Test [1] deals with ryegrass, Italian (Italian ryegrass, Lolium multiflorum). As to conditions: Lolium multiflorum, post-emergence, 240 h; for pest or weed control at 125 g/ha: 125 g ai/ha; for pest or weed control at 500 g/ha: 500 g ai/ha. The gist of the method:
(§1)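 Seeded soil received test chemicals as a preemergence directed spray, and seedlings at one to two leaves, 2–10 cm tall, received them postemergence, in a non-phytotoxic, surfactant-containing solvent mixture. Pots were held in a greenhouse for approximately 10 d, then rated for injury from 0, no effect, to 100, complete control.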

Test [2] deals with Kochia (Kochia scoparia). As to conditions: Bassia scoparia, post-emergence, 240 h; for pest or weed control at 125 g/ha: 125 g ai/ha; for pest or weed control at 500 g/ha: 500 g ai/ha. The gist of the method:
as §1

Test [3] relates to wheat (Triticum aestivum). As to conditions: Triticum aestivum, post-emergence, 240 h; for plant injury at 125 g/ha: 125 g ai/ha; for plant injury at 500 g/ha: 500 g ai/ha. In outline: as §1
The test system of test [4] is pigweed (Amaranthus retroflexus). As to conditions: Amaranthus retroflexus, post-emergence, 240 h; for pest or weed control at 125 g/ha: 125 g ai/ha; for pest or weed control at 500 g/ha: 500 g ai/ha. The gist of the method:
as §1

For test [5], the system named is giant foxtail (Setaria faberii). As to conditions: Setaria faberi, post-emergence, 240 h; for pest or weed control at 125 g/ha: 125 g ai/ha; for pest or weed control at 500 g/ha: 500 g ai/ha. The gist of the method: as §1
The subject of test [6] is blackgrass (Alopecurus myosuroides). As to conditions: Alopecurus myosuroides, post-emergence, 240 h; for pest or weed control at 125 g/ha: 125 g ai/ha; for pest or weed control at 500 g/ha: 500 g ai/ha. In outline: as §1
Setting [7] is: postemergence, visual injury rating after approximately 10 d, read-out: Ryegrass, Italian plant response rating (0 to 100 scale, 0 no effect, 100 complete control).
Setting [8] is: postemergence, visual injury rating after approximately 10 d, read-out: Kochia plant response rating (0 to 100 scale, 0 no effect, 100 complete control).
Setting [9] is: postemergence, visual injury rating after approximately 10 d, read-out: Wheat plant response rating (0 to 100 scale, 0 no effect, 100 complete control).
Where [10] appears, read: postemergence, visual injury rating after approximately 10 d, read-out: Pigweed plant response rating (0 to 100 scale, 0 no effect, 100 complete control).
[11] abbreviates: postemergence, visual injury rating after approximately 10 d, read-out: Foxtail, Giant plant response rating (0 to 100 scale, 0 no effect, 100 complete control).
The mark [12] stands for this setting: postemergence, visual injury rating after approximately 10 d, read-out: Blackgrass plant response rating (0 to 100 scale, 0 no effect, 100 complete control).
Setting [13] is: Postemergence, visual injury after approximately 10 d, 0 to 100 scale where 0 is no effect and 100 is complete control, read-out: Plant response rating, Ryegrass, Italian.
Where [14] appears, read: Postemergence, visual injury after approximately 10 d, 0 to 100 scale where 0 is no effect and 100 is complete control, read-out: Plant response rating, Kochia.
Where [15] appears, read: Postemergence, visual injury after approximately 10 d, 0 to 100 scale where 0 is no effect and 100 is complete control, read-out: Plant response rating, Wheat.
Setting [16] is: Postemergence, visual injury after approximately 10 d, 0 to 100 scale where 0 is no effect and 100 is complete control, read-out: Plant response rating, Pigweed.
Setting [17] is: Postemergence, visual injury after approximately 10 d, 0 to 100 scale where 0 is no effect and 100 is complete control, read-out: Plant response rating, Foxtail, Giant.
Where [18] appears, read: Postemergence, visual injury after approximately 10 d, 0 to 100 scale where 0 is no effect and 100 is complete control, read-out: Plant response rating, Blackgrass.
Where [19] appears, read: postemergence, visual injury on 0 to 100 scale (0 no effect, 100 complete control), approx. 10 d, read-out: Ryegrass, Italian plant response rating.
[20] abbreviates: postemergence, 0 to 100 scale, 0 is no effect, 100 is complete control, read-out: Ryegrass, Italian plant response rating.
Setting [21] is: postemergence, visual injury on 0 to 100 scale (0 no effect, 100 complete control), approx. 10 d, read-out: Kochia plant response rating.
Setting [22] is: postemergence, 0 to 100 scale, 0 is no effect, 100 is complete control, read-out: Kochia plant response rating.
[23] abbreviates: postemergence, visual injury on 0 to 100 scale (0 no effect, 100 complete control), approx. 10 d, read-out: Wheat plant response rating.
Where [24] appears, read: postemergence, 0 to 100 scale, 0 is no effect, 100 is complete control, read-out: Wheat plant response rating.
Setting [25] is: postemergence, visual injury on 0 to 100 scale (0 no effect, 100 complete control), approx. 10 d, read-out: Pigweed plant response rating.
The mark [26] stands for this setting: postemergence, 0 to 100 scale, 0 is no effect, 100 is complete control, read-out: Pigweed plant response rating.
Where [27] appears, read: postemergence, visual injury on 0 to 100 scale (0 no effect, 100 complete control), approx. 10 d, read-out: Foxtail, Giant plant response rating.
The mark [28] stands for this setting: postemergence, 0 to 100 scale, 0 is no effect, 100 is complete control, read-out: Foxtail, Giant plant response rating.
Setting [29] is: postemergence, visual injury on 0 to 100 scale (0 no effect, 100 complete control), approx. 10 d, read-out: Blackgrass plant response rating.
Where [30] appears, read: postemergence, 0 to 100 scale, 0 is no effect, 100 is complete control, read-out: Blackgrass plant response rating.

Each structure is given as a SMILES string. Like-named read-outs stand apart in the source and are kept apart here.

In the case of `CN1C[C@H](c2cccc(F)c2)[C@@H](C(=O)Nc2ccccc2S(C)(=O)=O)C1=O` [Compound 824], the pest or weed control at 125 g/ha in test [1] (setting [7]) was determined as 30%; in test [2] (setting [8]), 0%; in test [4] (setting [10]), 0%; in test [5] (setting [11]), 90%; in test [6] (setting [12]) it was 20%. In test [3] (setting [9]), the plant injury at 125 g/ha was 0%.

Consider `CC(C)Oc1ccc([C@H]2CN(C)C(=O)[C@@H]2C(=O)Nc2ccc(F)cc2F)cc1` [Compound 954], for which the pest or weed control at 125 g/ha in test [1] (setting [13]) is 0%; in test [2] (setting [14]), 0%; in test [4] (setting [16]), 0%; in test [5] (setting [17]) it was 60%; in test [6] (setting [18]), 0%. For the same compound, in test [3] (setting [15]), the plant injury at 125 g/ha is 0%.

Consider `Cc1c(F)ccc([C@H]2CNC(=O)[C@@H]2C(=O)Nc2ccccc2C(F)(F)F)c1F` [Compound 831], for which the pest or weed control at 125 g/ha in test [1] (setting [7]) is 20%; in test [2] (setting [8]) it was 0%; in test [4] (setting [10]), 0%; in test [5] (setting [11]) it was 20%; in test [6] (setting [12]), 0%. The plant injury at 125 g/ha in test [3] (setting [9]) was found to be 0%.

For `CN1C[C@H](c2cc(F)cc(C(F)(F)F)c2)[C@@H](C(=O)Nc2ccc(F)c(F)c2F)C1=O` [Compound 993], the pest or weed control at 125 g/ha in test [1] (setting [13]) was 50%; in test [2] (setting [14]) it was 20%; in test [4] (setting [16]) it was 30%; in test [5] (setting [17]), 90%; in test [6] (setting [18]) it was 70%. Further, in test [3] (setting [15]), the plant injury at 125 g/ha stood at 50%.

With `Cc1c(F)cccc1NC(=O)[C@H]1C(=O)NC[C@@H]1c1cc(F)c(F)c(F)c1` [Compound 1125], the pest or weed control at 125 g/ha in test [1] (setting [19]) was found to be 0%; in test [2] (setting [21]) it was 0%; in test [4] (setting [25]) it was 0%; in test [5] (setting [27]), 90%; in test [6] (setting [29]) it was 40%. Besides, the pest or weed control at 500 g/ha is 60% in test [1] (setting [20]); 40% in test [2] (setting [22]); 0% in test [4] (setting [26]); 90% in test [5] (setting [28]); 50% in test [6] (setting [30]). Further, the plant injury at 125 g/ha in test [3] (setting [23]) was determined as 30%. Besides, the plant injury at 500 g/ha in test [3] (setting [24]) came to 40%.

Turning to `CN1C[C@H](c2cc(C(F)F)cs2)[C@@H](C(=O)Nc2ccccc2F)C1=O` [Compound 1120], the pest or weed control at 125 g/ha in test [1] (setting [19]) came out at 20%; in test [2] (setting [21]) it was 20%; in test [4] (setting [25]), 0%; in test [5] (setting [27]), 90%; in test [6] (setting [29]), 30%. Besides, the pest or weed control at 500 g/ha in test [1] (setting [20]) was 40%; in test [2] (setting [22]), 70%; in test [4] (setting [26]), 20%; in test [5] (setting [28]) it was 90%; in test [6] (setting [30]), 50%. In addition, the plant injury at 125 g/ha in test [3] (setting [23]) was 20%. In addition, the plant injury at 500 g/ha in test [3] (setting [24]) stood at 50%.

With `CC(C)COc1cccc([C@H]2CNC(=O)[C@@H]2C(=O)Nc2cccc(F)c2F)c1` [Compound 965], the pest or weed control at 125 g/ha in test [1] (setting [13]) worked out at 0%; in test [2] (setting [14]), 0%; in test [4] (setting [16]) it was 0%; in test [5] (setting [17]) it was 70%; in test [6] (setting [18]), 30%. For the same compound, the plant injury at 125 g/ha in test [3] (setting [15]) stood at 20%.

With `CN1CC[C@H](c2ccccc2)[C@@H](C(=O)Nc2ccccc2F)C1=O` [Compound 1032], the pest or weed control at 125 g/ha in test [1] (setting [19]), in test [2] (setting [21]), in test [4] (setting [25]), in test [5] (setting [27]) and in test [6] (setting [18]) was 0% in each case. Also, the pest or weed control at 500 g/ha in test [1] (postemergence, visual injury, 0 to 100 scale (0 no effect, 100 complete control), approx. 10 d, read-out: Plant response rating, Ryegrass, Italian) was determined as 0%; in test [2] (postemergence, visual injury, 0 to 100 scale (0 no effect, 100 complete control), approx. 10 d, read-out: Plant response rating, Kochia), 0%; in test [4] (postemergence, visual injury, 0 to 100 scale (0 no effect, 100 complete control), approx. 10 d, read-out: Plant response rating, Pigweed), 0%; in test [5] (postemergence, visual injury, 0 to 100 scale (0 no effect, 100 complete control), approx. 10 d, read-out: Plant response rating, Foxtail, Giant), 0%; in test [6] (postemergence, visual injury, 0 to 100 scale (0 no effect, 100 complete control), approx. 10 d, read-out: Plant response rating, Blackgrass), 0%. Besides, the plant injury at 125 g/ha in test [3] (setting [23]) came out at 0%. The plant injury at 500 g/ha in test [3] (postemergence, visual injury, 0 to 100 scale (0 no effect, 100 complete control), approx. 10 d, read-out: Plant response rating, Wheat) came to 0%.

With `Cc1c(F)ccc([C@H]2CN(C)C(=O)[C@@H]2C(=O)Nc2ccc(F)cc2F)c1F` [Compound 835], the pest or weed control at 125 g/ha was determined as 50% in test [1] (setting [7]); 0% in test [2] (setting [8]); 20% in test [4] (setting [10]); 90% in test [5] (setting [11]); 40% in test [6] (setting [12]). In addition, in test [3] (setting [9]), the plant injury at 125 g/ha was determined as 0%.
